Reference: ChEMBL document CHEMBL1201862, “PubChem BioAssay data set” (2004)
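Results reflect a 48-hour exposure of cells in 96-well plates to compound at five concentrations. The concentration for 50% growth inhibition is given as GI50.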 Active and inactive are the calls of the source. No stated cut-off is given here; in the data, active = GI50 up to about 1.1 µM and inactive = higher.

Legend:
Test in all cases: NCI anticancer screen, dose series, 48 h
[1] = test system: A498
[2] = test system: A549
[3] = test system: ACHN
[4] = test system: CCRF-CEM
[5] = test system: COLO 205
[6] = test system: DLD-1
[7] = test system: DMS-114
[8] = test system: DMS-273
[9] = test system: EKVX
[10] = test system: HCC 2998
[11] = test system: HCT-116
[12] = test system: HCT-15
[13] = test system: HL-60
[14] = test system: HOP-62
[15] = test system: HOP-92
[16] = test system: HT-29
[17] = test system: IGROV-1
[18] = test system: KM-20L2
[19] = test system: KM12
[20] = test system: LOX IMVI
[21] = test system: LXFL 529
[22] = test system: M14
[23] = test system: M19-MEL
[24] = test system: MOLT-4
[25] = test system: Malme-3M
[26] = test system: NCI-H226
[27] = test system: NCI-H23
[28] = test system: NCI-H460
[29] = test system: NCI-H522
[30] = test system: OVCAR-3
[31] = test system: OVCAR-4
[32] = test system: OVCAR-5
[33] = test system: OVCAR-8
[34] = test system: RPMI-8226
[35] = test system: RXF 393
[36] = test system: SF-268
[37] = test system: SF-295
[38] = test system: SF-539
[39] = test system: SK-MEL-28
[40] = test system: SK-MEL-2
[41] = test system: SK-MEL-5
[42] = test system: SK-OV-3
[43] = test system: SN12C
[44] = test system: SNB-19
[45] = test system: SNB-75
[46] = test system: SNB-78
[47] = test system: SR
[48] = test system: SW-620
[49] = test system: TK-10
[50] = test system: U-251
[51] = test system: UACC-257
[52] = test system: UACC-62
[53] = test system: XF498

With `CN(/N=N/c1[nH]cnc1C(N)=O)C1CCCCC1` the GI50 [1] was > 100 µM (inactive), the GI50 [2] was > 100 µM (inactive) and the GI50 [3] was > 100 µM (inactive). For the same molecule, the GI50 [4] was 55.2 µM (inactive), the GI50 [5] was > 100 µM (inactive) and the GI50 [6] was > 100 µM (inactive). For the same molecule, the GI50 [7] was > 100 µM (inactive), the GI50 [8] was 41.2 µM (inactive) and the GI50 [9] was > 100 µM (inactive). For the same molecule, the GI50 [10] was > 100 µM (inactive), the GI50 [11] was 50.4 µM (inactive) and the GI50 [12] was over 100 µM. The GI50 [13] was 29.5 µM (inactive), the GI50 [14] was > 100 µM (inactive) and the GI50 [15] was 55.1 µM (inactive). For the same molecule, the GI50 [16] was > 100 µM (inactive), the GI50 [17] was > 100 µM (inactive) and the GI50 [18] was 81.3 µM (inactive). For the same molecule, the GI50 [19] was > 100 µM (inactive), the GI50 [20] was 42.2 µM (inactive) and the GI50 [21] was > 100 µM (inactive). The GI50 [22] was 72.9 µM (inactive), the GI50 [23] was > 100 µM (inactive) and the GI50 [24] was 49.1 µM (inactive). For the same molecule, the GI50 [25] was 74.6 µM (inactive), the GI50 [26] was > 100 µM (inactive) and the GI50 [27] was > 100 µM (inactive). For the same molecule, the GI50 [28] was > 100 µM (inactive), the GI50 [29] was > 100 µM (inactive) and the GI50 [30] was 75.7 µM (inactive). For the same molecule, the GI50 [31] was 55.1 µM (inactive), the GI50 [32] was > 100 µM (inactive) and the GI50 [33] was 36.9 µM (inactive). For the same molecule, the GI50 [34] was 52.6 µM (inactive), the GI50 [35] was > 100 µM (inactive) and the GI50 [36] was > 100 µM (inactive). For the same molecule, the GI50 [37] was 86.7 µM (inactive), the GI50 [38] was > 100 µM (inactive) and the GI50 [39] was > 100 µM (inactive). For the same molecule, the GI50 [40] was 27.1 µM (inactive), the GI50 [41] was > 100 µM (inactive) and the GI50 [42] was 48.2 µM (inactive). The GI50 [43] was > 100 µM (inactive), the GI50 [44] was > 100 µM (inactive) and the GI50 [45] was 34.6 µM (inactive). The GI50 [46] was > 100 µM (inactive), the GI50 [47] was 30.7 µM (inactive) and the GI50 [48] was 69 µM (inactive). For the same molecule, the GI50 [49] was 40 µM (inactive), the GI50 [50] was > 100 µM (inactive) and the GI50 [51] was 62.1 µM (inactive). For the same molecule, the GI50 [52] was 61.7 µM (inactive) and the GI50 [53] was 75.7 µM (inactive).

With `C/C(=N\NC(=O)c1ccccc1O)c1cccc(/C(C)=N/NC(=O)c2ccccc2O)n1.[Cl-].[Cl-].[Zn+2]` the GI50 [2] was 10.8 µM (inactive), the GI50 [3] was 2.17 µM (inactive) and the GI50 [7] was 2.97 µM (inactive). The GI50 [9] was 19.6 µM (inactive), the GI50 [10] was 2.01 µM (inactive) and the GI50 [12] was 7.35 µM. The GI50 [15] was 10.6 µM (inactive), the GI50 [19] was 6.25 µM (inactive) and the GI50 [20] was 1.37 µM (inactive). The GI50 [21] was 1.34 µM (inactive), the GI50 [22] was 7.96 µM (inactive) and the GI50 [24] was 1.59 µM (inactive). The GI50 [25] was 10.8 µM (inactive), the GI50 [33] was 2.18 µM (inactive) and the GI50 [35] was 8.05 µM (inactive). For the same molecule, the GI50 [36] was 2.11 µM (inactive), the GI50 [37] was 9.98 µM (inactive) and the GI50 [40] was 15.2 µM (inactive). The GI50 [41] was 10.4 µM (inactive), the GI50 [42] was 6.15 µM (inactive) and the GI50 [45] was 17.9 µM (inactive). For the same molecule, the GI50 [47] was 1.44 µM (inactive), the GI50 [48] was 5.85 µM (inactive) and the GI50 [49] was 10.2 µM (inactive). The GI50 [52] was 2.11 µM (inactive) and the GI50 [53] was 21.2 µM (inactive).
